Results as given in patent US6969583B2, “Method for detecting variant HBV” (Melbourne Health, priority 2000, dated 2005).
Read-outs that look alike come from different tables or passages of the source.

Tests used:
Format in all cases: cell-based, Hepatitis B virus
[1] = test system: precore (G1896A) recombinant HBV-baculovirus; assay: Antiviral testing of the precore mutant (G1896A) HBV baculovirus in HepG2 cells (Example 17)
Procedure: (§1) HepG2 cells were seeded at approximately 20-40% confluency and then were grown for 16-24 hours before infection. On the day of infection, triplicate plates of cells were trypsinized, and viable cell number was determined with a hemocytometer using Trypan blue exclusion. Average cell counts were calculated and used to determine the volume of high-titer viral stock necessary to infect cells at the indicated moi. HepG2 cells were washed one time with serum-free MEM to remove traces of serum. Baculovirus was diluted into MEM without serum to achieve the appropriate moi using volumes of 1.0, 0.5, and 0.25 ml to infect 100-mm, 60 mm, and 35-mm dishes, respectively. Baculovirus was adsorbed to HepG2 cells for one hour at 37° C. with gentle rocking every 15 minutes to ensure that the inoculum was evenly distributed. The inoculum was then aspirated and HepG2 cells were washed two times with phosphate-buffered saline and refed MEM-FBS with or without various concentrations of agents.
(§2) HBV core particles were isolated from the cytoplasmic fraction of HepG2 cells lysed in 0.5% w/v NP-40. Cytoplasmic extracts were adjusted to 10 mmol/l McC12 and unprotected DNA was removed by an incubation to […] for 1.5 hours at 37° C. Following sequential phenol and chloroform extractions, nucleic acids were recovered by ethanol precipitation. Nucleic acids were resuspended in 50 μl/l TE (10 mmol/l Tris, 1 mmol/l ethylenedianinetetraacetic acid), normalized by OD260, and digested with 100 μg/ml RNase (Boehringer Mannheim, Indianapolis, Ind.) for one hour at 37° C. before analysis by electrophoresis and Southern blotting. A BioRad GS-670 imaging densitometer and the Molecular Analyst software (BioRad, Hecules Calif.) was used to analyze suitable exposures of Southern blots. Densitometry data was fitted to logistic dose response curves using the TableCurve2D software package from Jandel Scientific. Logistic dose response equations were used to calculate IC50 and IC90 values and co-efficients of variation.
(§3) Conditioned medium was collected from HepG2 cells and subjected to centrifugation at 6,000 g for five minutes to remove cellular debris. HBV particles were precipitated with 10% w/v PEG 8000 and were concentrated by centrifugation at 12,000 ×g. Viral pellets were resuspended us 1 ml of MEM-FBS and divided into two aliquots. One set of aliquots was treated with 750 μg/ml Pronase for one hour and then with […] DNase 1 for one hour. Both sets of aliquots were then digested with Proteinase K, and extracted with phenol and chloroform. DNA was precipitated with 0.1 volume of 3 mol/l sodium acetate and 1 volume of isopropanol. Ten micrograms of transfer RNA was added as a carrier during precipitation. Pellets were resuspended in 25 μl of TE and digested with 0.5 mg/ml RNase for one hour. DNA was then analyzed by electrophoresis and Southern blotting.
(§4) 3TC and PCV were a gift from Klaus Esser, SmithKline Beecham, Collegeville, Pa. PMEA was obtained from Gilead (Foster City, Calif.). 3TC was resuspended in sterile water, aliquoted, and frozen at −20° C. to avoid repeated freezing and thawing of the drug. PMEA was resuspended in sterile water after the pH was adjusted to 7.0 with NaOH. PCV was resuspended in dimethyl sulphoxide. Medium containing 3TC was prepared daily as needed using fresh aliquots of 3TC. In experiments in which 3TC treatment was initiated after viral infection, HepG2 cells were exposed to the indicated concentration of 3TC immediately after infection with HBV baculovirus. In experiments utilizing pretreatment with 3TC, cells were fed medium containing 3TC 16 hours prior to HBV baculovirus infection, HBV baculovirus infection was also carried out in medium containing 3TC, and cells were refed fresh medium containing 3TC immediately after completion of the infection and washing procedures. Treatment with PMEA and PCV were conducted in a similar manner.

[2] = test system: M550I HBV baculovirus; assay: Antiviral testing with M550I HBV baculovirus in HepG2 cells (Example 15)
Procedure: as §1, §2, §4

[3] = test system: L526M/M550V recombinant HBV-baculovirus; assay: Antiviral testing, L526M/M550V recombinant HBV-baculovirus in HepG2 cells (Example 17); conditions: Hepatitis B virus, HepG2, intracellular single-stranded HBV DNA, NDR = no dose response, read-out: IC50 (μM), IC SS
Procedure: as §1
(§5) HBV core particles were isolated from the cytoplasmic fraction of HepG2 cells lysed in 0.5% w/v NP-40. […]
(§6) Conditioned medium was collected from HepG2 cells and subjected to centrifugation at 6,000 g for five minutes to remove cellular debris. […] DNA was then analyzed by electrophoresis and Southern blotting. […]

[4] = test system: M550I recombinant HBV-baculovirus; assay: Antiviral testing, M550I recombinant HBV-baculovirus in HepG2 cells (Example 17); conditions: Hepatitis B virus, HepG2, intracellular single-stranded HBV DNA, NDR = no dose response, read-out: IC50 (μM), IC SS
Procedure: as §1, §5, §6

[5] = test system: L526M/M550V HBV baculovirus; assay: Antiviral testing with L526M/M550V HBV baculovirus in HepG2 cells (Example 15)
Procedure: as §1, §2, §4

[6] = test system: L526M HBV baculovirus; assay: Antiviral testing with L526M HBV baculovirus in HepG2 cells (Example 15)
Procedure: as §1, §2, §4

[7] = test system: wild-type (WT) recombinant HBV-baculovirus; assay: Antiviral testing, wild-type (1.3x genomic length) recombinant HBV-baculovirus in HepG2 cells (Example 17)
Procedure: as §1, §2, §3, §4

[8] = test system: wild-type HBV baculovirus; assay: Antiviral testing with wild-type HBV baculovirus in HepG2 cells (Example 15, Southern blot densitometry)
Procedure: as §1, §2, §4
The dose effect of 3TC and PMEA, on wild-type HBV is shown graphically in FIG. 6 (A, B,) and a Southern Blot of intracellular HBV replicative intermediates and extracellular virus produced by HepG2 cells transduced with wild-type HBV-baculovirus in the presence of increasing concentrations of PCV is shown in FIG. 6C and the IC50 for each antiviral agent is shown in Table 2.

[9] = test system: Precore/L526M/M550V recombinant HBV-baculovirus; assay: Antiviral testing, Precore/L526M/M550V recombinant HBV-baculovirus in HepG2 cells (Example 17); conditions: Hepatitis B virus, NDR = no dose response
Procedure: as §1, §2
as §3, with “Pellets were resuspended in 25 μl of TE and digested with 0.5 mg/ml RNase for one hour.” left out, “blotting. […]” for “blotting.”

[10] = test system: Precore/M550I recombinant HBV-baculovirus; assay: Antiviral testing, Precore/M550I recombinant HBV-baculovirus in HepG2 cells (Example 17); conditions: Hepatitis B virus, NDR = no dose response
Procedure: as §1, §2
as §3, with “Pellets were resuspended in 25 μl of TE and digested with 0.5 mg/ml RNase for one hour.” left out, “blotting. […]” for “blotting.”

[11] = HepG2, extracellular relaxed circular HBV DNA, read-out: IC50 (μM), EC RC
[12] = HepG2, intracellular single-stranded HBV DNA, read-out: IC50 (μM), IC SS

Nc1ncnc2c1ncn2CCOCP(=O)(O)O [Adefovir, 9-(2-phosphonylmethoxyethyl)adenine]
IC50 ([1]; Hepatitis B virus, HepG2, Precore (G1896A), extracellular relaxed circular HBV DNA, averages where footnoted, read-out: IC50 (μM), EC RC): 0.025 µM | IC50 ([1]; Hepatitis B virus, HepG2, Precore (G1896A), extracellular relaxed circular HBV DNA, individual experiments behind the average, read-out: IC50, single experiments, EC RC): 0.02 µM | IC50 ([1]; Hepatitis B virus, HepG2, Precore (G1896A), intracellular single-stranded HBV DNA, averages where footnoted, read-out: IC50 (μM), IC SS): 0.195 µM | IC50 ([1]; Hepatitis B virus, HepG2, Precore (G1896A), intracellular single-stranded HBV DNA, individual experiments behind the average, read-out: IC50, single experiments, IC SS): 0.2 µM | IC50 ([1]; Precore (G1896A), extracellular relaxed circular HBV DNA, individual experiments behind the average, read-out: IC50, single experiments, EC RC): 0.03 µM | IC50 ([1]; Precore (G1896A), intracellular single-stranded HBV DNA, individual experiments behind the average, read-out: IC50, single experiments, IC SS): 0.19 µM | sensitivity of G1896A HBV compared with wild type HBV ([1]; result in words): at least as sensitive | inhibition at 1 µM ([2]; Hepatitis B virus, HepG2, 550 (M550I) HBV, ds HBV DNA band density vs untreated controls, estimated from fitted curve, negative = stimulation): 70% | IC50 ([2]; Hepatitis B virus, 550 (M550I) HBV, ds HBV DNA bands, HepG2 cells, read-out: IC50): 310 nM | Resistance Factor ([2]; {}): 4 | IC50 [3]: 0.93 µM | IC50 [4]: 0.94 µM | change in sensitivity of L526M/M550V ([5]; FIG. 8A-8C, result in words): no substantial change | inhibition at 1 µM ([5]; Hepatitis B virus, HepG2, dual (L526M/M550V) HBV, ds HBV DNA band density vs untreated controls, estimated from fitted curve, negative = stimulation): 77% | IC50 ([5]; Hepatitis B virus, dual (L526M/M550V) HBV, ds HBV DNA bands, HepG2 cells): 160 nM | Resistance Factor ([5]; {}): 2 | change in sensitivity of L526M compared to wild-type ([6]; FIG. 7A-7C, result in words): No significant change | inhibition at 1 µM ([6]; Hepatitis B virus, HepG2, 526 (L526M) HBV, ds HBV DNA band density vs untreated controls, estimated from fitted curve, negative = stimulation, read-out: Inhibition at 1 μM): 86.2% | IC50 ([6]; Hepatitis B virus, 526 (L526M) HBV, ds HBV DNA bands, HepG2 cells, read-out: IC50): 90 nM | Resistance Factor ([6]; {}): 1 | IC50 ([7]; Hepatitis B virus, HepG2, WT, extracellular relaxed circular HBV DNA, averages where footnoted, read-out: IC50 (μM), EC RC): 0.0535 µM | IC50 ([7]; Hepatitis B virus, HepG2, WT, extracellular relaxed circular HBV DNA, individual experiments behind the average, read-out: IC50, single experiments, EC RC): 0.06 µM | IC50 ([7]; Hepatitis B virus, HepG2, WT, intracellular single-stranded HBV DNA, averages where footnoted, read-out: IC50 (μM), IC SS): 0.235 µM | IC50 ([7]; Hepatitis B virus, HepG2, WT, intracellular single-stranded HBV DNA, individual experiments behind the average, read-out: IC50, single experiments, IC SS): 0.25 µM | IC50 ([7]; WT, extracellular relaxed circular HBV DNA, individual experiments behind the average, read-out: IC50, single experiments, EC RC): 0.047 µM | IC50 ([7]; WT, intracellular single-stranded HBV DNA, individual experiments behind the average, read-out: IC50, single experiments, IC SS): 0.22 µM | inhibition at 1 µM ([8]; Hepatitis B virus, HepG2, wt HBV, ds HBV DNA band density vs untreated controls, estimated from fitted curve, negative = stimulation of replication): 91.6% | IC50 ([8]; Hepatitis B virus, wt HBV, ds HBV DNA bands, HepG2 cells): 80 nM | Resistance Factor ([8]; {}): 1 | IC50 [9, 11]: 1 µM | IC50 [9, 12]: 0.47 µM | IC50 [10, 11]: 0.09 µM | IC50 [10, 12]: 0.28 µM
